test system: human Cav3.1 Cav3.2 or Cav3.3 channel; assay: In vitro assay T channel (FLIPR, Ca2+-induced fluorescence); format: cell-based; conditions: HEK293 cells expressing human Cav3.1 Cav3.2 or Cav3.3; 10 mM Ca2+; determined up to 10 μM; read-out: T channel antagonistic activity IC50
Protocol: Human embryonic kidney (HEK293) cells expressing the human Cav3.1 Cav3.2 or Cav3.3 channel, respectively, are grown in culture medium (DMEM containing 10% heat-inactivated fetal calf serum (FCS), 100 U/ml penicillin, 100 μg/ml streptomycin and 1 mg/ml G418). The cells are seeded at 20.000 cells/well into 384-well black clear bottom sterile plates (poly-L-lysine-coated, Becton Dickinson). The seeded plates are incubated overnight at 37° C. in 5% CO2. The Ca^2+ solution is prepared as 100 mM stock solution in 100 mM tetraethylammoniumchloride (TEA-chloride), 50 mM HEPES, 2.5 mM CaCl2, 5 mM KCl, 1 mM MgCl2, adjusted to pH 7.2 with TEA-hydroxide, for use in the assay at a final concentration of 10 mM. […] Fluorescence is measured for each well at 2 second intervals for 8 minutes, and the area under the curve of each fluorescence peak is compared to the area of the fluorescence peak induced by 10 mM Ca^2+ with vehicle in place of antagonist.

First: CN(CCCc1nc2ccccc2[nH]1)CC[C@]1(O)C[C@H]2CC[C@@H]1c1ccccc12 (relative stereo) [Example 1, rac-(1R*,8R*,9R*)-9-(2-{[3-(1H-Benzoimidazol-2-yl)-propyl]-methyl-amino}-ethyl)-tricyclo[6.2.2.0^2,7]dodeca-2,4,6-trien-9-ol]
Second: CN(CCCc1nc2ccccc2[nH]1)CC[C@@]1(O)C[C@H]2CC[C@@H]1c1ccccc12 (relative stereo) [Example 5, rac-(1R*,8R*,9S*)-9-(2-{[3-(1H-Benzoimidazol-2-yl)-propyl]-methyl-amino}-ethyl)-tricyclo[6.2.2.0^2,7]dodeca-2,4,6-trien-9-ol]
The IC50 of the first is lower: 2850 nM for the first, greater than 10000 nM for the second. The first is the more potent here.

Going from COCC(=O)O[C@@]1(CCN(C)CCCc2nc3ccccc3[nH]2)C[C@H]2CC[C@@H]1c1ccccc12 (relative stereo) [Example 1A, rac-Methoxy-acetic acid (1R*,8R*,9R*)-9-(2-{[3-(1H-benzoimidazol-2-yl)-propyl]-methyl-amino}-ethyl)-tricyclo[6.2.2.0^2,7]dodeca-2,4,6-trien-9-yl ester] to COCC(=O)O[C@@]1(CCN(C)CCCc2nc3ccccc3[nH]2)C[C@H]2CCC[C@@H]1c1ccccc12 (relative stereo) [Example 10A, rac-Methoxy-acetic acid (1R*,8R*,12R*)-12-(2-{[3-(1H-benzoimidazol-2-yl)-propyl]-methyl-amino}-ethyl)-tricyclo[6.3.2.0^2,7]trideca-2,4,6-trien-12-yl ester], the IC50 falls from 1530 nM to 814 nM (1.9-fold).

Compared with CN(CCCc1nc2ccccc2[nH]1)CC[C@]1(OC(=O)C2CC2)C[C@H]2CC[C@@H]1c1ccccc12 (relative stereo) [Example 1C, rac-Cyclopropanecarboxylic acid (1R*,8R*,9R*)-9-(2-{[3-(1H-benzoimidazol-2-yl)-propyl]-methyl-amino}-ethyl)-tricyclo[6.2.2.0^2,7]dodeca-2,4,6-trien-9-yl ester], CC(C)C(=O)O[C@]1(CCN(C)CCCc2nc3ccccc3[nH]2)C[C@H]2CC[C@@H]1c1ccccc12 (relative stereo) [Example 5A, rac-Isobutyric acid (1R*,8R*,9S*)-9-(2-{[3-(1H-benzoimidazol-2-yl)-propyl]-methyl-amino}-ethyl)-tricyclo[6.2.2.0^2,7]dodeca-2,4,6-trien-9-yl ester] is 5.3-fold higher in IC50: 969 nM for the first, 5180 nM for the second.

Going from CO[C@@]1(CCN(C)CCCc2nc3ccccc3[nH]2)C[C@H]2CC[C@@H]1c1ccccc12 (relative stereo) [Example 4, rac-(1R*,8R*,9R*)-[3-(1H-Benzoimidazol-2-yl)-propyl]-[2-(9-methoxy-tricyclo[6.2.2.0^2,7]dodeca-2,4,6-trien-9-yl)-ethyl]-methyl-amine] to CN(CCCc1nc2ccccc2[nH]1)CCC1(O)CC2CCC1c1ccccc12 (single isomer, unassigned) [Example 2, (1S,8S,9S)-9-(2-{[3-(1H-Benzoimidazol-2-yl)-propyl]-methyl-amino}-ethyl)-tricyclo[6.2.2.0^2,7]dodeca-2,4,6-trien-9-ol or (1R,8R,9R)-9-(2-{[3-(1H-benzoimidazol-2-yl)-propyl]-methyl-amino}-ethyl)-tricyclo[6.2.2.0^2,7]dodeca-2,4,6-trien-9-ol], the IC50 rises from 1220 nM to 2900 nM (2.4-fold).

First: O[C@@]1(CCN2CCC(c3nc4ccccc4[nH]3)CC2)C[C@H]2CC[C@@H]1c1ccccc12 (relative stereo) [Example 6, rac-(1R*,8R*,9R*)-9-{2-[4-(1H-Benzoimidazol-2-yl)-piperidin-1-yl]-ethyl}-tricyclo[6.2.2.0^2,7]dodeca-2,4,6-trien-9-ol]
Second: O[C@@]1(CCN2CCCC(c3nc4ccccc4[nH]3)C2)C[C@H]2CC[C@@H]1c1ccccc12 (relative stereo) [Example 7, (1R*,8R*,9R*)-9-{2-[(3RS)-3-(1H-Benzoimidazol-2-yl)-piperidin-1-yl]-ethyl}-tricyclo[6.2.2.0^2,7]dodeca-2,4,6-trien-9-ol]
The IC50 of the first is 1.7-fold lower: 1360 nM for the first, 2260 nM for the second. The first is the more potent here.

CC(C)C(=O)O[C@@]1(CCN2CCC(c3nc4ccccc4[nH]3)CC2)C[C@H]2CC[C@@H]1c1ccccc12 (relative stereo) [Example 6A, rac-Isobutyric acid (1R*,8R*,9R*)-9-{2-[4-(1H-benzoimidazol-2-yl)-piperidin-1-yl]-ethyl}-tricyclo[6.2.2.0^2,7]dodeca-2,4,6-trien-9-yl ester] and CC(C)C(=O)O[C@@]1(CCN2CCCC(c3nc4ccccc4[nH]3)C2)C[C@H]2CC[C@@H]1c1ccccc12 (relative stereo) [Example 7A, Isobutyric acid (1R*,8R*,9R*)-9-{2-[(3RS)-3-(1H-benzoimidazol-2-yl)-piperidin-1-yl]-ethyl}-tricyclo[6.2.2.0^2,7]dodeca-2,4,6-trien-9-yl ester] are within 1.5-fold of each other in IC50: 751 nM for the first, 1110 nM for the second.

Going from O[C@@]1(CCN2CCC(c3ccccc3)(c3nc4ccccc4[nH]3)CC2)C[C@H]2CC[C@@H]1c1ccccc12 (relative stereo) [Example 8, rac-(1R*,8R*,9R*)-9-{2-[4-(1H-Benzoimidazol-2-yl)-4-phenyl-piperidin-1-yl]-ethyl}-tricyclo[6.2.2.0^2,7]dodeca-2,4,6-trien-9-ol] to CC(C)C(=O)O[C@@]1(CCN2CCC(c3ccccc3)(c3nc4ccccc4[nH]3)CC2)C[C@H]2CC[C@@H]1c1ccccc12 (relative stereo) [Example 8A, rac-Isobutyric acid (1R*,8R*,9R*)-9-{2-[4-(1H-benzoimidazol-2-yl)-4-phenyl-piperidin-1-yl]-ethyl}-tricyclo[6.2.2.0^2,7]dodeca-2,4,6-trien-9-yl ester], the IC50 rises from 953 nM to 6100 nM (6.4-fold).

CN(CCCc1nc2ccccc2[nH]1)CC[C@]1(O)C[C@H]2CC[C@@H]1c1cc(F)c(F)cc12 (relative stereo) [Example 9, rac-(1R*,8R*,9R*)-9-(2-{[3-(1H-Benzoimidazol-2-yl)-propyl]-methyl-amino}-ethyl)-4,5-difluoro-tricyclo[6.2.2.0^2,7]dodeca-2,4,6-trien-9-ol] and CN(CCCc1nc2ccccc2[nH]1)CCC1(O)CC2CCC1c1ccccc12 (single isomer, unassigned) [Example 3, (1S,8S,9S)-9-(2-{[3-(1H-Benzoimidazol-2-yl)-propyl]-methyl-amino}-ethyl)-tricyclo[6.2.2.0^2,7]dodeca-2,4,6-trien-9-ol or (1R,8R,9R)-9-(2-{[3-(1H-benzoimidazol-2-yl)-propyl]-methyl-amino}-ethyl)-tricyclo[6.2.2.0^2,7]dodeca-2,4,6-trien-9-ol] are within 1.5-fold of each other in IC50: 1850 nM for the first, 2250 nM for the second.

Going from CN(CCCc1nc2ccccc2[nH]1)CC[C@]1(O)C[C@H]2CCC[C@@H]1c1ccccc12 (relative stereo) [Example 10, rac-(1R*,8R*,12R*)-12-(2-{[3-(1H-Benzoimidazol-2-yl)-propyl]-methyl-amino}-ethyl)-tricyclo[6.3.2.0^2,7]trideca-2,4,6-trien-12-ol] to CN(CCCc1nc2ccccc2[nH]1)CCC1(O)CC2CCCC1c1ccccc12 (single isomer, unassigned) [Example 11, (1S,8S,12S)-12-(2-{[3-(1H-Benzoimidazol-2-yl)-propyl]-methyl-amino}-ethyl)-tricyclo[6.3.2.0^2,7]trideca-2,4,6-trien-12-ol or (1R,8R,12R)-12-(2-{[3-(1H-benzoimidazol-2-yl)-propyl]-methyl-amino}-ethyl)-tricyclo[6.3.2.0^2,7]trideca-2,4,6-trien-12-ol], the IC50 falls from 1580 nM to 521 nM (3-fold). The second is the more potent here.

First: CC(C)C(=O)O[C@@]1(CCN(C)CCCc2nc3ccccc3[nH]2)C[C@H]2CCC[C@@H]1c1ccccc12 (relative stereo) [Example 10B, rac-Isobutyric acid (1R*,8R*,12R*)-12-(2-{[3-(1H-benzoimidazol-2-yl)-propyl]-methyl-amino}-ethyl)-tricyclo[6.3.2.0^2,7]trideca-2,4,6-trien-12-yl ester]
Second: CN(CCCc1nc2ccccc2[nH]1)CCC1(O)CC2CCCC1c1ccccc12 (single isomer, unassigned) [Example 12, (1S,8S,12S)-12-(2-{[3-(1H-Benzoimidazol-2-yl)-propyl]-methyl-amino}-ethyl)-tricyclo[6.3.2.0^2,7]trideca-2,4,6-trien-12-ol or (1R,8R,12R)-12-(2-{[3-(1H-benzoimidazol-2-yl)-propyl]-methyl-amino}-ethyl)-tricyclo[6.3.2.0^2,7]trideca-2,4,6-trien-12-ol]
The IC50 of the first is 2.1-fold higher: 1310 nM for the first, 631 nM for the second.

First: COc1cccc2[nH]c(CCCN(C)CCC3(O)CC4CCCC3c3ccccc34)nc12 (single isomer, unassigned) [Example 13, (1S,8S,12S)-12-(2-{[3-(4-Methoxy-1H-benzoimidazol-2-yl)-propyl]-methyl-amino}-ethyl)-tricyclo[6.3.2.0^2,7]trideca-2,4,6-trien-12-ol or (1R,8R,12R)-12-(2-{[3-(4-methoxy-1H-benzoimidazol-2-yl)-propyl]-methyl-amino}-ethyl)-tricyclo[6.3.2.0^2,7]trideca-2,4,6-trien-12-ol]
Second: COc1ccc(C)c2[nH]c(CCCN(C)CCC3(O)CC4CCCC3c3ccccc34)nc12 (single isomer, unassigned) [Example 14, (1S,8S,12S)-12-(2-{[3-(4-Methoxy-7-methyl-1H-benzoimidazol-2-yl)-propyl]-methyl-amino}-ethyl)-tricyclo[6.3.2.0^2,7]trideca-2,4,6-trien-12-ol or (1R,8R,12R)-12-(2-{[3-(4-methoxy-7-methyl-1H-benzoimidazol-2-yl)-propyl]-methyl-amino}-ethyl)-tricyclo[6.3.2.0^2,7]trideca-2,4,6-trien-12-ol]
The IC50 of the first is 1.7-fold higher: 1220 nM for the first, 736 nM for the second.
